Columns and labels:
[1] = tested on: female Lewis rats; test: Rat type-II-collagen-induced arthritis; format: in vivo; details: oral administration at 10 mg/kg/day, once daily Day 7 to Day 20, hindlimb volume by plethysmometer, read-out: inhibition of hindlimb swelling compared with the control group
Experimental: The compounds were tested to examine effects upon rat type II collagen arthritis. To 3 mg/mL bovine type II collagen solution (Collagen Gijutsu Kenshu-Kai) dissolved in 0.05 mol/L acetic acid, an equal amount of Freund's incomplete adjuvant (Wako Pure Chemical Industries, Ltd.) was added to prepare an emulsion. A portion of the emulsion (0.5 ml) was intradermally injected into the tail bases of 7- or 8-week-old female Lewis rats (Charles River Laboratories Japan, Inc.) (Day 0). Each rat was subjected to the same treatment on Day 7 after the initial inoculation so as to induce arthritis. Each test compound was orally administered from Day 7 to Day 20 once daily. At a given time during the period from Day 7 to Day 21, the rat hindlimb volume was determined using a plethysmometer (UGO BASILE), and the result was designated as an arthritis index. The following compound group inhibited hindlimb swelling by 85% or greater compared with the control group in the case of oral administration at 10 mg/kg/day: the compounds of Example 4-17, Example 6-49, Example 6-117, Example 6-157, Example 6-249, Example 6-322, Example 6-375, and Example 6-395.

[2] = target: T1, glutathione S-transferase (GST)-fused full-length human Syk protein (Homo sapiens, UniProt P43405); test: Syk enzyme assay; format: biochemical; details: Syk enzyme assay, Test Example 1; read-out: IC50 of Syk-inhibitory activity
T1 construct: (GST)-fused full-length human Syk protein; GST (glutathione S-transferase); purchased Carna Biosciences
Summary of the method: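 GST-tagged full-length human Syk (baculovirus) preincubated with compound 15 min at room temperature (pH 7.0, 10 mM MgCl2), then reacted 40 min with 0.4 μM biotinylated peptide substrate and 27 μM ATP (final). Phosphorylation read by HTRF (615/665 nm) after EDTA stop; IC50 reported.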

[3] = tested on: THP-1 cells; test: TNFα generation assay; format: cell-based, human; details: Homo sapiens, THP-1, THP-1 cells; Table 22; read-out: IC50 in TNFα generation assay
Summary of the method: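 THP-1 cells differentiated to macrophage-like cells with 10 ng/ml IFN-γ for 2 days, preincubated with compound 30 min at room temperature, then cultured 7 h on plates coated with human IgG (10 μg/ml). Secreted TNFα measured by ELISA or AlphaLISA.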

[4] = tested on: THP-1 cells; test: Antibody-dependent phagocytosis assay; format: cell-based; details: Homo sapiens; THP-1 cells induced to differentiate with IFNγ; opsonized Escherichia coli; Table 23; read-out: IC50 upon phagocytosis inhibition
Experimental: THP-1 cells (2×10^5 cells/ml) which are human monocyte-like cell line were cultured in the presence of 10 ng/ml IFNγ for 2 days, so that the cells were induced to differentiate into macrophage-like cells. THP-1 cells that had been induced to differentiate were collected. The cells (5×10^4 cells/well) were reacted with test compounds having given concentrations at room temperature for 30 minutes. Thereafter, Escherichia coli (Life Technologies) labeled with a pH-sensitive dye (pHrodo) was subjected to opsonization using an anti-Escherichia coli antibody (Molecular Probes). Then, the resultant was added to THP-1 cells mixed with test compounds that had been induced to differentiate, followed by incubation at 37° C. for 3 hours. At the time of addition of opsonized Escherichia coli, cell-permeable fluorescent dye (Calcein AM) were simultaneously added thereto, and phagocytosis of opsonized Escherichia coli in viable cells was quantitatively determined using an IN Cell Analyzer.
In addition, the following are used in Table 23 to denote standards for evaluating IC50 upon phagocytosis inhibition. • A: Up to 1 μM • B: 1 to 3 μM • C: 3 to 6 μM

Compound | IC50 [2] | IC50 [3] | IC50 [4] | inhibition in vivo at 10 mg/kg/day [1]
CC(C)C[C@H](CN)Nc1nc(Nc2ccc3ncccc3c2)c(C(N)=O)cc1F [Example 6-117, (R)-6-((1-amino-4-methylpentan-2-yl)amino)-5-fluoro-2-((quinolin-6-yl)amino)nicotinamide] | – | – | – | ≥ 85%
CCC[C@@H](Nc1nc(Nc2ccnc(OC)c2)c(C(N)=O)cc1F)[C@H](C)N [Example 6-249, 6-(((2S,3R)-2-aminohexane-3-yl)amino)-5-fluoro-2-((2-methoxypyridin-4-yl)amino)nicotinamide] | – | – | – | ≥ 85%
CC[C@@H](Nc1nc(Nc2cncc(-c3cccc(OC)c3F)c2)c(C(N)=O)cc1F)[C@H](C)N [Example 006-278, 6-(((2S,3R)-2-aminopentan-3-yl)amino)-5-fluoro-2-((5-(2-fluoro-3-methoxyphenyl)pyridin-3-yl)amino)nicotinamide] | < 10 nM | < 65 nM | 1000 to 3000 nM | –
CCC[C@@H](Nc1nc(Nc2cncc(F)c2)c(C(N)=O)cc1F)[C@H](C)N [Example 006-301, 6-(((2S,3R)-2-aminohexan-3-yl)amino)-5-fluoro-2-((5-fluoropyridin-3-yl)amino)nicotinamide] | 10 to 50 nM | 65 to 130 nM | 1000 to 3000 nM | –
CCCOc1cc(Nc2nc(N[C@H](CCC)[C@H](C)N)c(F)cc2C(N)=O)ccn1 [Example 006-311, 6-(((2S,3R)-2-aminohexan-3-yl)amino)-5-fluoro-2-((2-propoxypyridin-4-yl)amino)nicotinamide] | < 10 nM | 65 to 130 nM | 1000 to 3000 nM | –
CCn1ncc2cc(Nc3nc(N[C@@H](CN)CC(C)C)c(F)cc3C(N)=O)ccc21 [Example 6-322, (R)-6-((1-amino-4-methylpentan-2-yl)amino)-2-((1-ethyl-1H-indazol-5-yl)amino)-5-fluoronicotinamide] | – | – | – | ≥ 85%
Cc1ncc(Nc2nc(N[C@@H]3CCCC[C@@H]3N)c(F)cc2C(N)=O)cc1-n1nccn1 [Example 6-375, 6-(((1R,2S)-2-aminocyclohexyl)amino)-5-fluoro-2-((6-methyl-5-(2H-1,2,3-triazol-2-yl)pyridin-3-yl)amino)nicotinamide] | – | – | – | ≥ 85%
NC(=O)c1cc(F)c(N[C@@H]2CCCC[C@@H]2N)nc1Nc1cnc(N2CCOCC2)c(F)c1 [Example 006-395, 6-(((1R,2S)-2-aminocyclohexyl)amino)-5-fluoro-2-((5-fluoro-6-morpholinopyridin-3-yl)amino)nicotinamide] | 10 to 50 nM | 65 to 130 nM | 1000 to 3000 nM | –
NC(=O)c1cc(F)c(N[C@@H]2CCCC[C@@H]2N)nc1Nc1cnc(N2CCOCC2)c(F)c1 [Example 6-395, 6-(((1R,2S)-2-aminocyclohexyl)amino)-5-fluoro-2-((5-fluoro-6-morpholinopyridin-3-yl)amino)nicotinamide] | – | – | – | ≥ 85%
CCOc1nccc(Nc2nc(N[C@@H]3CCCC[C@@H]3N)c(F)cc2C(N)=O)c1F [Example 006-433, 6-(((1R,2S)-2-aminocyclohexyl)amino)-2-((2-ethoxy-3-fluoropyridin-4-yl)amino)-5-fluoronicotinamide] | < 10 nM | 65 to 130 nM | 1000 to 3000 nM | –
COC[C@@H](Nc1nc(Nc2ccc3ncccc3c2)c(C(N)=O)cc1F)[C@H](C)N [Example 006-468, 6-(((2S,3S)-3-amino-1-methoxybutan-2-yl)amino)-5-fluoro-2-((quinolin-6-yl)amino)nicotinamide] | < 10 nM | < 65 nM | < 1000 nM | –

Continued, in another order:

IC50 [2] | IC50 [3] | IC50 [4] | Compound | inhibition in vivo at 10 mg/kg/day [1]
< 10 nM | < 65 nM | < 1000 nM | CCn1ncc2cc(Nc3nc(N[C@@H](CN)CC(C)C)c(F)cc3C(N)=O)ccc21 [Example 006-322, (R)-6-((1-amino-4-methylpentan-2-yl)amino)-2-((1-ethyl-1H-indazol-5-yl)amino)-5-fluoronicotinamide] | –
< 10 nM | < 65 nM | 1000 to 3000 nM | CCn1ncc2cc(Nc3nc(N[C@H](CC4CC4)[C@H](C)N)c(F)cc3C(N)=O)ccc21 [Example 006-342, 6-(((2R,3S)-3-amino-1-cyclopropylbutan-2-yl)amino)-2-((1-ethyl-1H-indazol-5-yl)amino)-5-fluoronicotinamide] | –
< 10 nM | < 65 nM | < 1000 nM | C[C@H](N)[C@H](Nc1nc(Nc2ccc3ncccc3c2)c(C(N)=O)cc1F)C1CC1 [Example 006-368, 6-(((1R,2S)-2-amino-1-cyclopropylpropyl)amino)-5-fluoro-2-((quinolin-6-yl)amino)nicotinamide] | –
< 10 nM | 65 to 130 nM | 1000 to 3000 nM | Cc1ncc(Nc2nc(N[C@@H]3CCCC[C@@H]3N)c(F)cc2C(N)=O)cc1-n1nccn1 [Example 006-375, 6-(((1R,2S)-2-aminocyclohexyl)amino)-5-fluoro-2-((6-methyl-5-(2H-1,2,3-triazol-2-yl)pyridin-3-yl)amino)nicotinamide] | –
< 10 nM | < 65 nM | 1000 to 3000 nM | Cc1ncc(Nc2nc(N[C@@H]3CCCC[C@@H]3N)c(F)cc2C(N)=O)cc1-c1ccco1 [Example 006-376, 6-(((1R,2S)-2-aminocyclohexyl)amino)-5-fluoro-2-((5-(furan-2-yl)-6-methylpyridin-3-yl)amino)nicotinamide] | –
< 10 nM | < 65 nM | 1000 to 3000 nM | COc1ncc(Nc2nc(N[C@@H]3CCCC[C@@H]3N)c(F)cc2C(N)=O)cc1-n1nccn1 [Example 006-377, 6-(((1R,2S)-2-aminocyclohexyl)amino)-5-fluoro-2-((6-methoxy-5-(2H-1,2,3-triazol-2-yl)pyridin-3-yl)amino)nicotinamide] | –
< 10 nM | < 65 nM | 1000 to 3000 nM | CC(C)C[C@@H](Nc1nc(Nc2ccc3c(cnn3C)c2)c(C(N)=O)cc1F)[C@H](C)N [Example 006-383, 6-(((2S,3R)-2-amino-5-methylhexan-3-yl)amino)-5-fluoro-2-((1-methyl-1H-indazol-5-yl)amino)nicotinamide] | –
< 10 nM | < 65 nM | < 1000 nM | CCn1ncc2cc(Nc3nc(N[C@H](CC(C)C)[C@H](C)N)c(F)cc3C(N)=O)ccc21 [Example 006-384, 6-(((2S,3R)-2-amino-5-methylhexan-3-yl)amino)-2-((1-ethyl-1H-indazol-5-yl)amino)-5-fluoronicotinamide] | –
< 10 nM | < 65 nM | < 1000 nM | NC(=O)c1cc(F)c(NC2CCCCC2N)nc1Nc1ccc2ncccc2c1 (centres unmarked) [Example 008-006] | –
10 to 50 nM | 65 to 130 nM | 1000 to 3000 nM | NC(=O)c1cc(F)c(N[C@@H](C(N)=O)c2ccccc2)nc1Nc1ccc2ncccc2c1 [Example 012-008] | –
< 10 nM | < 65 nM | 1000 to 3000 nM | CCC(N)CNc1nc(Nc2ccc3ncccc3c2)c(C(N)=O)cc1F (centres unmarked) [Example 014-001] | –

From patent publication US8895585B2, “Nicotinamide derivative or salt thereof” (FUJIFILM Corporation, priority 2010, dated 2014)
